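Values below derive from 48-hour exposures of cells grown in 96-well plates, with endpoints linearly interpolated between the two concentrations bracketing the appropriate inhibition level. GI50 marks 50% less growth.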 Active and inactive are the calls of the source. No stated cut-off is given here; in the data, active = GI50 up to about 1.1 µM and inactive = higher.
Columns and labels:
Assay in all cases: inhibition of tumour cell growth, NCI panel, 48 h
[1] = system: SNB-75
[2] = system: COLO 205
[3] = system: CCRF-CEM
[4] = system: NCI-H23
[5] = system: HCC 2998
[6] = system: UACC-62
[7] = system: SK-MEL-5
[8] = system: HOP-62
[9] = system: UACC-257
[10] = system: OVCAR-8
[11] = system: A498
[12] = system: MCF7
[13] = system: IGROV-1
[14] = system: MDA-MB-231
[15] = system: SF-295
[16] = system: U-251
[17] = system: M14
[18] = system: RPMI-8226
[19] = system: UO-31
[20] = system: SF-539
[21] = system: NCI/ADR-RES
[22] = system: SF-268
[23] = system: SK-OV-3
[24] = system: SK-MEL-2
[25] = system: Hs-578T
[26] = system: RXF 393
[27] = system: T47D
[28] = system: 786-0
[29] = system: SNB-19
[30] = system: HCT-116
[31] = system: Malme-3M
[32] = system: TK-10
[33] = system: HT-29
[34] = system: NCI-H522
[35] = system: OVCAR-4
[36] = system: EKVX
[37] = system: HCT-15
[38] = system: SR
[39] = system: HL-60
[40] = system: SK-MEL-28
[41] = system: BT-549
[42] = system: LOX IMVI
[43] = system: SN12C
[44] = system: OVCAR-5
[45] = system: HOP-92
[46] = system: SW-620
[47] = system: CAKI-1
[48] = system: OVCAR-3
[49] = system: MOLT-4
[50] = system: MDA-MB-435
[51] = system: ACHN
[52] = system: KM12
[53] = system: MDA-N
[54] = system: DU-145
[55] = system: NCI-H226
[56] = system: A549
[57] = system: PC-3
[58] = system: K562
[59] = system: NCI-H460

## O=C1C[C@@H](c2ccccc2)NCCCCN(O)CCCN1
[1]
  GI50: > 100 µM (inactive)
[2]
  GI50: > 100 µM (inactive)
[3]
  GI50: > 100 µM (inactive)
[4]
  GI50: > 100 µM (inactive)
[5]
  GI50: > 100 µM (inactive)
[6]
  GI50: > 100 µM (inactive)
[7]
  GI50: > 100 µM (inactive)
[8]
  GI50: > 100 µM (inactive)
[9]
  GI50: > 100 µM (inactive)
[10]
  GI50: > 100 µM (inactive)
[11]
  GI50: > 100 µM (inactive)
[12]
  GI50: > 100 µM (inactive)
[13]
  GI50: > 100 µM (inactive)
[14]
  GI50: > 100 µM (inactive)
[15]
  GI50: > 100 µM (inactive)
[16]
  GI50: > 100 µM (inactive)
[17]
  GI50: > 100 µM (inactive)
[18]
  GI50: 22.3 µM (inactive)
[19]
  GI50: > 100 µM (inactive)
[20]
  GI50: > 100 µM (inactive)
[21]
  GI50: > 100 µM (inactive)
[22]
  GI50: > 100 µM (inactive)
[23]
  GI50: > 100 µM (inactive)
[24]
  GI50: > 100 µM (inactive)
[25]
  GI50: > 100 µM (inactive)
[26]
  GI50: > 100 µM (inactive)
[27]
  GI50: > 100 µM (inactive)
[28]
  GI50: > 100 µM (inactive)
[29]
  GI50: 28.4 µM (inactive)
[30]
  GI50: > 100 µM (inactive)
[31]
  GI50: > 100 µM (inactive)
[32]
  GI50: > 100 µM (inactive)
[33]
  GI50: > 100 µM (inactive)
[34]
  GI50: > 100 µM (inactive)
[35]
  GI50: 88.5 µM (inactive)
[36]
  GI50: > 100 µM (inactive)
[37]
  GI50: > 100 µM
[38]
  GI50: > 10 µM (inactive)
[39]
  GI50: > 100 µM (inactive)
[40]
  GI50: > 100 µM (inactive)
[41]
  GI50: > 100 µM (inactive)
[42]
  GI50: > 100 µM (inactive)
[43]
  GI50: > 100 µM (inactive)
[44]
  GI50: > 100 µM (inactive)
[45]
  GI50: > 100 µM (inactive)
[46]
  GI50: > 100 µM (inactive)
[47]
  GI50: > 100 µM (inactive)
[48]
  GI50: > 100 µM (inactive)
[49]
  GI50: > 100 µM (inactive)
[50]
  GI50: > 100 µM (inactive)
[51]
  GI50: > 100 µM (inactive)
[52]
  GI50: > 100 µM (inactive)
[53]
  GI50: > 100 µM (inactive)
[54]
  GI50: > 100 µM (inactive)
[55]
  GI50: > 100 µM (inactive)
[56]
  GI50: > 100 µM (inactive)
[57]
  GI50: > 100 µM (inactive)

## CC(=O)Oc1ccc2c(c1)c1c(=O)oc(N(C)C)nc1n2Cc1ccccc1
[1]
  GI50: > 60.3 µM (inactive)
[2]
  GI50: > 56.4 µM (inactive)
[3]
  GI50: 55.6 µM (inactive)
[4]
  GI50: 97.5 µM (inactive)
[5]
  GI50: > 100 µM (inactive)
[6]
  GI50: 28.4 µM (inactive)
[7]
  GI50: 42 µM (inactive)
[8]
  GI50: > 59.3 µM (inactive)
[9]
  GI50: > 86.5 µM (inactive)
[10]
  GI50: 57.8 µM (inactive)
[11]
  GI50: > 41.1 µM (inactive)
[12]
  GI50: 25.2 µM (inactive)
[13]
  GI50: > 95.1 µM (inactive)
[14]
  GI50: > 75.7 µM (inactive)
[15]
  GI50: 47.9 µM (inactive)
[16]
  GI50: 39 µM (inactive)
[17]
  GI50: > 78.7 µM (inactive)
[18]
  GI50: > 65 µM (inactive)
[19]
  GI50: 10.8 µM (inactive)
[20]
  GI50: > 71.9 µM (inactive)
[21]
  GI50: 34.8 µM (inactive)
[22]
  GI50: 37.1 µM (inactive)
[23]
  GI50: > 100 µM (inactive)
[24]
  GI50: > 76.6 µM (inactive)
[58]
  GI50: 39.4 µM (inactive)
[25]
  GI50: > 53.3 µM (inactive)
[26]
  GI50: 52.5 µM (inactive)
[27]
  GI50: 29.7 µM (inactive)
[28]
  GI50: 50.9 µM (inactive)
[29]
  GI50: > 100 µM (inactive)
[30]
  GI50: 39.9 µM (inactive)
[31]
  GI50: 47.9 µM (inactive)
[59]
  GI50: 52.2 µM (inactive)
[32]
  GI50: > 100 µM (inactive)
[33]
  GI50: 64 µM (inactive)
[34]
  GI50: 12.8 µM (inactive)
[35]
  GI50: 57.9 µM (inactive)
[36]
  GI50: > 100 µM (inactive)
[37]
  GI50: 37.9 µM
[38]
  GI50: 43.1 µM (inactive)
[39]
  GI50: 23.6 µM (inactive)
[40]
  GI50: > 100 µM (inactive)
[41]
  GI50: 37.2 µM (inactive)
[42]
  GI50: 49.7 µM (inactive)
[43]
  GI50: > 100 µM (inactive)
[44]
  GI50: > 100 µM (inactive)
[45]
  GI50: 19.5 µM (inactive)
[46]
  GI50: 81.1 µM (inactive)
[48]
  GI50: 55.1 µM (inactive)
[49]
  GI50: 34 µM (inactive)
[50]
  GI50: 46.2 µM (inactive)
[51]
  GI50: 45.3 µM (inactive)
[52]
  GI50: 56.6 µM (inactive)
[53]
  GI50: > 71.4 µM (inactive)
[54]
  GI50: > 100 µM (inactive)
[55]
  GI50: > 80.4 µM (inactive)
[56]
  GI50: 48.4 µM (inactive)
[57]
  GI50: > 61.4 µM (inactive)
